# Measured values as given in paper PMC8149581 (Chemistry of Heterocyclic Compounds, 2021).
# Like-named read-outs stand apart in the source and are kept apart here.
# Tests used:
# [1] = Simultaneous thermal analysis; assay type: physicochemical
# [2] = test system: influenza A/Puerto Rico/8/34 (H1N1) virus; assay type: cell-based
# in vitro = details: dog
compound,measurement,setting,value
"O=[N+]([O-])c1cc(-c2nnn(C34CC5CC(CC(C5)C3)C4)n2)ccc1O [Compound 3g, 4-[(2-Adamantan-1-yl)-2 H -tetrazol-5-yl]-2-nitrophenol]",Temperature from which complete decomposition occurs,"[1]; argon flow, heating rate 10°C/min",≥ 250 °C
same,Temperature of release of molecular nitrogen (loss of weight),"[1]; argon flow, heating rate 10°C/min, strong exothermic effect",156.2 °C
same,Loss of mass at complete decomposition,[1]; starting with 250°C,33.6%
"Clc1ccc(-c2nnn(C34CC5CC(CC(C5)C3)C4)n2)cc1 [Compound 3d, 2-(Adamantan-1-yl)-5-(4-chlorophenyl)-2 H -tetrazole]",Selectivity index (SI),[2],2
"Ic1ccc(-c2nnn(C34CC5CC(CC(C5)C3)C4)n2)cc1 [Compound 3a, 2-(Adamantan-1-yl)-5-(4-iodophenyl)-2 H -tetrazole]",Selectivity index (SI),[2]; ratio of CC50 to IC50,1
"CC(N)C12CC3CC(CC(C3)C1)C2 (stereo not drawn) [Rimantadine, reference compound]",CC50,in vitro,60 ± 4 µg/mL
same,Selectivity index (SI),[2],5
"Nc1c(Br)cc([N+](=O)[O-])cc1-c1nnn(C23CC4CC(CC(C4)C2)C3)n1 [Compound 3h, 2-[2-(Adamantan-1-yl)-2 H -tetrazol-5-yl]-6-bromo-4-nitroaniline]",Selectivity index (SI),[2],11
"Nc1cc(-c2nnn(C34CC5CC(CC(C5)C3)C4)n2)ccc1O [Compound 3i, 4-[2-(Adamantan-1-yl)-2 H -tetrazol-5-yl]-2-aminophenol]",Selectivity index (SI),[2],2
